This is an account of results in patent US7807656B2, “Pharmaceutical applications of hyaluronic acid preparations” (priority 2001, dated 2010).

The experiment concerns adipose tissue. In words: addition of hyaluronic acid to liposuction infiltration solution. Type of experiment: in vivo. The settings on record: added to infiltration solution. The method, then: Hyaluronic acid can also be added to infiltration solutions which are injected into the tissue prior to a liposuction. These infiltration solutions are usually isotonic or hypotonic salt solutions which can contain additives, for example blood vessel-contracting and/or pain-reducing additives, such as noradrenaline, adrenaline, lidocaine, prilocalne, bicarbonate, corticosteroids, etc. Hyaluronic acid (crosslinked and/or uncrosslinked hyaluronic acid) is advantageously added to these solutions at concentrations of from 0.001 to 1.0% (wt/vol), preferably of from 0.01 to 0.5% (wt/vol), e.g. of about 0.025% (wt/vol). […] Furthermore, structures in the adipose tissue which are worth conserving, such as blood vessels, nerves or connective tissue bands, are spared. Adding the hyaluronic acid also makes the process of liposuction markedly more atraumatic when compared with the conventional procedure. […] This also leads to a reduction in the tissue trauma. All in all, adding hyaluronic acid to the infiltration solution protects the remaining adipose tissue in the body and results in the adipose tissue aspirate being withdrawn in a gentler manner.
This is of importance insofar as adipose tissue aspirates can be used as endogenous transplants. […]

With hyaluronic acid, the “survival of fat cells in the aspirate” value is “improves the survival of fat cells”. In addition, where the note is “aspirate transplanted”, the “growth of transferred tissue at the recipient site” value is “grow more strongly”.
